Values of other authors as cited in patent publication US12311004B2, “Ophthalmic formulations and methods of use” (VISION SOLUTIONS, LLC, priority 2023, dated 2025).

Assays:
FHV-1 = settings: low concentrations, in vitro
[1] = oral, cat

Structure (SMILES): NCCCC[C@H](N)C(=O)O [L-lysine]
- effect on the replication kinetics of the virus (FHV-1): no effect
- daily intake at which arginine deficiency is likely to occur [1]: exceeding 80 g/kg
